Experimental data published in patent publication US20210371817A1, “COMPOSITIONS AND METHODS FOR PRECISE PATTERNING OF POSTERIOR NEUROECTODERM FROM HUMAN PLURIPOTENT STEM CELLS” (WISCONSIN ALUMNI RESEARCH FOUNDATION, priority 2013, published 2021).

What was measured:
Format in all cases: cell-based, human
H9 ishcat2 line = experiment: qPCR gene expression in H9 ishcat2 line (doxycycline-inducible β-catenin shRNA)
Method: Cell lines were passaged for differentiation on day −1 for all experiments (see Example 4 for details). (FIG. 4A) Timeline of H9 hESC differentiation corresponding to panels (FIG. 4B) and (FIG. 4C). RA, 1 μM; CHIR 99021, 3 μM; FGF8b, 100 ng/ml. (FIG. 4B) Gene expression analysis by RT-PCR. Control sample is E6 medium alone. (FIG. 4C) qPCR analysis at day 5 of differentiation normalized to the morphogen treatment that yielded maximum expression. Statistical significance was calculated using the Student's unpaired t-test relative to the sample with maximum expression (*, p<0.005; **, p<0.001). (FIG. 4D) qPCR analysis of gene expression at day 2 using the H9 ishcat2 line in the presence or absence of doxycycline (2 μg/ml) added 3 days prior to morphogen treatment. Data are normalized to doxycycline-free samples for each respective morphogen and statistical significance was calculated using the Student's unpaired t-test (*, p<0.01). (FIG. 4E) qPCR analysis of gene expression at day 5 using the H9 ishcat2 line in the presence or absence of doxycycline. Statistical significance was calculated using the Student's unpaired t-test (*, p<0.005). […] [HX531]=1 μM. Timeline shown on left panel.
(§1) qPCR. Total RNA was extracted from cultured cells using TRIZOL® (Life Technologies) according to the manufacturer's instructions. After isolation, 2-5 μg of total RNA was immediately subjected to reverse transcription using the Thermoscript™ RT-PCR kit (Life Technologies) in a 20 μL reaction according to the manufacturer's instructions. Resultant cDNA was diluted to 200 μL and utilized for qPCR (25 μL reactions, 1 μL cDNA per reaction) on a BioRad CFX96 detection unit using TAQMAN® Gene Expression Master Mix (Life Technologies) and TAQMAN® primers (Life Technologies). For all experiments, ΔΔCt values for each gene were calculated relative to ribosomal protein S18 (RPS18) RNA levels and converted to fold difference assuming 100% primer efficiency, then normalized to maximum expression levels as indicated in each figure legend.
To confirm the effects of CHIR 99021 were due to activation of β-catenin, we utilized the H9 ishcat2 line which harbors a doxycycline-inducible β-catenin shRNA cassette^23. […] We extended doxycycline with FGF8b/CHIR 99021 for 4 days and observed a reduction in HOXC6 by 9-fold, HOXC8 by 7-fold, and HOXC9 by 8-fold, which implicates β-catenin in HOX progression to caudal paralogs (FIG. 4E).

H9 hESCs = experiment: HOX, OTX2 and T gene expression by RT-PCR/qPCR during hESC differentiation with morphogens; details: HX531 1 μM; RT-PCR
Method: hPSC differentiation. hPSCs were washed once with phosphate-buffered saline (PBS; Invitrogen), dissociated with ACCUTASE® (Invitrogen) for 3 min, and collected by centrifugation. hPSCs were then seeded onto VTN-NC-coated plates in E8 medium containing 10 μM ROCK inhibitor (Y27632; R&D Systems). Seeding density was 2×10^5 cells/cm^2. The following day, the cells were switched to E6 medium (same composition as E8 medium minus FGF2 and TGFβ 1). Morphogen treatments were then carried out according to the figures in the text. Cells were supplemented with FGF8b (100-200 ng/ml; Peprotech), CHIR99021 (3-6 μM; Tocris), and/or RA (3 μM; Sigma).
Reverse transcriptase polymerase chain reaction (RT-PCR). Total RNA was extracted from cells using TRIZOL® reagent (Invitrogen) according to the manufacturer's instructions. RNA was then subjected to reverse-transcription using a Thermoscript™ RT-PCR kit (Invitrogen) in a 20 μL mixture according to the manufacturer's instructions. The resulting cDNA was then amplified in a 25 μL mixture containing 10×PCR buffer, 0.2 mM dNTP, 1.5 mM MgCl2, 0.5 μM of each primer, and 1 U Taq DNA polymerase (Invitrogen). Amplified products were resolved on 2% agarose gels containing SYBR Safe (Invitrogen) and visualized with a VersaDoc (BioRad). Primer sequences can be found in Table 3. All amplifications were carried out for 35 cycles. HOXC5 and HOXC6 were amplified at 58° C., all others with an annealing temperature of 55° C.
Propagation and differentiation of neuromesodermal progenitors. H9 hESCs (passage 25-45), H9 ishcat2 hESCs (passage 33-43), and IMR90-4 iPSCs (passage 31-40) were maintained in E8 medium on MATRIGEL© (BD Biosciences) as previously described. To initiate differentiation, hPSCs were passaged with ACCUTASE© (Life Technologies) onto vitronectin (VTN-NC)-coated plates at a density of 1×10^5 cells/cm^2 as previously described. The following day, cells were changed to E6 medium. 24 h later, cells were changed to E6 medium containing 200 ng/ml FGF8b (Peprotech). 24 h later, cells were washed once with 2 ml PBS, treated with ACCUTASE® for 2 min, and removed from the surface by gentle pipetting. After collection by centrifugation, cells were gently resuspended in E6 medium containing 200 ng/ml FGF8b and CHIR99021 (CHIR, concentration varied depending on cell line; Tocris) and re-seeded on VTN-NC-coated plates at a density of 1.5×10^5 cells/cm^2. Medium was not changed until 48 h after passaging. This passaging process was repeated on day 3 of CHIR 99021 treatment (re-seed density of 1.2×10^5 cells/cm^2) if extended neuromesodermal propagation was required, and 50 ng/ml GDF11 (Peprotech) was added on day 4 of CHIR 99021 treatment to initiate lumbar patterning. Cells were changed to E6 medium containing 1 μM retinoic acid (RA; Sigma) to facilitate neural transition.
as §1, with “Resultant cDNA was diluted to 200 μL and utilized for qPCR (25 μL reactions, 1 μL cDNA per reaction) on a BioRad CFX96 detection unit using TAQMAN® Gene Expression Master Mix (Life Technologies) and TAQMAN® primers (Life Technologies).” left out, “legend. […]” for “legend.”

NSC cultures = experiment: Hox protein expression in NSC cultures after RA treatment (immunocytochemistry, flow cytometry)
Method: (§2) Assessment of neuroectoderm or mesoderm fate transition by flow cytometry. Grey histogram, IgG control; red histogram, antigen of interest. Data are presented as mean±standard deviation calculated from two biological replicates. (FIG. 8B) For experiments in panels FIGS. 8C-8F, neuromesodermal propagation was halted by removing FGF8b/CHIR 99021/GDF11 and adding RA. Assays were conducted after 4 days of RA treatment. (FIG. 8C) HOX profiles generated after RA treatment. Each gene is normalized to its maximum expression. Error bars are standard deviation calculated from duplicate reactions. (FIG. 8D) HoxB4 and HoxD10 expression in neuroepithelial cultures after RA treatment. Scale bars, 100 m. (FIG. 8E) Purity of Sox2, Pax6, HoxB4, and HoxD10 after 4 days of RA treatment. Sox2, Pax6, and HoxB4 were quantified using flow cytometry and HoxD10 was quantified by manual counting of dissociated cells ([…]). Error bars are standard deviation calculated from at least two biological replicates. […] (FIG. 8F) Motor neuron differentiation at cervical, thoracic, and lumbar spinal cord depths, where the motor neuron precursors show region-specific patterns of FoxP1, Isl1, and Hb9 co-expression. (FIG. 8G) Neuronal maturation from cervical, thoracic, and lumbar patterned NSCs, as assessed by immunocytochemistry (top panel; DAPI (blue) is overlaid in all images; Scale bars, 20 m) and RT-PCR (50 cycles; bottom panel).
FIGS. 9A-9C (FIG. 9A) provides additional data showing that RA induces a neuroectodermal fate and halts colinear HOX activation, using the neural differentiation scheme shown in FIG. 8B and representative hindbrain cultures assessed by qPCR. (FIG. 9B) Representative hindbrain cultures assessed by immunocytochemistry. (FIG. 9C) Representative hindbrain cultures assessed by flow cytometry. All data are presented as mean±S.D. and qPCR data are normalized to the time point of maximum expression for each gene. For the hindbrain cultures, HoxB1 and HoxB4 were quantified by immunocytochemistry relative to DAPI+ nuclei, while Sox2 and Pax6 were quantified by flow cytometry. Scale bars, 100 m.
(§3) Flow cytometry. Flow cytometry was conducted as described in the Examples above. Primary antibodies against Sox2 (mouse; 1:1000; Millipore), brachyury (goat; 1:200; R&D Systems), Pax6 (mouse; 1:200; DSHB), and HoxB4 (rat; 1:50; DSHB) were utilized. Samples were run on a FACSCaliber (BD Biosciences) and data were analyzed using Cyflogic software. Positive events were quantified by gating above the top 1% of species-matched IgG controls.
Immunocytochemistry. Immunocytochemistry was conducted as previously described. […]

[1] = test system: neuromesodermal progenitors; experiment: Neuroectoderm or mesoderm fate transition of neuromesodermal progenitors by flow cytometry
Method: as §2, §3
We next evaluated the transition of neuromesodermal progenitors to definitive neural progenitors. RA secreted from somites in response to declining FGF signaling elicits dorsal/ventral patterning and expression of the neuroectoderm marker Pax6 in vivo^16, 26, which led us to suspect RA serves as both the neuroectoderm fate switch and HOX ‘stop signal’. We first investigated the ability of RA to initiate neuroectoderm specification from neuromesodermal progenitors. […] At any point in neuromesodermal differentiation, the addition of RA generated highly pure (>83%) Pax6^+ neuroectoderm (FIGS. 8B-8E and FIGS. 9A-9C).

[2] = test system: neurally differentiating hPSC cultures; experiment: Alternative FGF isoforms in HOX patterning protocol (flow cytometry, RT-PCR); details: for Sox2 and T (Brachyury) expression: FGF with CHIR, flow cytometry; for Hox1-5 paralog activation: two days of FGF/CHIR treatment, RT-PCR
Method: (FIG. 6A) Timeline of differentiation. […] (FIG. 6H) Agarose gel analysis for HOXgene expression after two days of FGF/CHR treatment in the protocol outlined in (FIG. 6A).
Specifically, FGF8a, 8b, and 8f, FGF17, FGF18, and FGF2 were used to execute our HOX patterning protocol on concurrent neurally differentiating hPSC cultures. The ability of alternative FGFs to recapitulate the effects of FGF8b was assessed by their ability to maintain a Sox2^+/T^+ neuromesodermal state while also inducing a similar rate of sequential HOXgene expression. Post FGF/CHIR addition, flow cytometry assays for Sox2 and T were performed, and the rate of sequential HOXgene expression was assessed by RT-PCR for a select panel of HOXgenes on collected mRNA samples.

[3] = doxycycline prior to CHIR 99021 treatment, day 2
[4] = doxycycline with FGF8b/CHIR 99021 for 4 days
[5] = neuromesodermal progenitors exposed to E6 medium with the substance

C[C@H]1c2cccc(O)c2C(=O)C2=C(O)[C@]3(O)C(=O)C(C(N)=O)=C(O)[C@@H](N(C)C)[C@@H]3[C@@H](O)[C@@H]21 [doxycycline]
CTNNB1 reduction (H9 ishcat2 line; RA-treated cells, day 2): 2 fold | CTNNB1 (β-catenin) expression reduction (H9 ishcat2 line; doxycycline 2 μg/ml prior to CHIR 99021 treatment, day 2): 2.5 fold | HOXA1 expression decrease (H9 ishcat2 line; [3]): 15 fold | HOXB1 expression decrease (H9 ishcat2 line; [3]): 47 fold | T reduction (H9 ishcat2 line; doxycycline with FGF8b/CHIR 99021, day 5): 30 fold | HOXC6 reduction (H9 ishcat2 line; [4]): 9 fold | HOXC8 reduction (H9 ishcat2 line; [4]): 7 fold | HOXC9 reduction (H9 ishcat2 line; [4]): 8 fold

CN1c2ccc([N+](=O)[O-])cc2N=C(c2ccc(C(=O)O)cc2)c2cc3c(cc21)C(C)(C)CCC3(C)C [HX531]
Effect on ability of FGF8b/CHIR 99021 to activate cervical and thoracic HOX paralogs (H9 hESCs): did not prevent

CC1=C(/C=C/C(C)=C/C=C/C(C)=C/C(=O)O)C(C)(C)CCC1 [RA, retinoic acid]
HoxB4+ cells (NSC cultures; RA added 24 h later (within 24 h of HOXC9 induction)): 12±4% | HoxB4+ cells (NSC cultures; RA added between 24-48 h of neuromesodermal propagation): 84±10% | Purity of Pax6+ neuroectoderm ([1]; RA added at any point in neuromesodermal differentiation): > 83% | Brachyury+ cells [1, 5]: 43±4% | Pax6+ cells [1, 5]: 97±3% | Sox2+ cells [1, 5]: 98±4%

FGF2: fibroblast growth factor isoform used instead of FGF8b
Sox2 and T (Brachyury) expression [2]: nearly uniform expression of Sox2 and T (Brachyury) | Hox1-5 paralog activation [2]: activated Hox1-5 paralogs

B1: FGF17: fibroblast growth factor isoform used instead of FGF8b (protein, UniProt O60258 23-216, looked up)
Fibroblast growth factor 17: TQGENHPSPNFNQYVRDQGAMTDQLSRRQIREYQLYSRTSGKHVQVTGRRISATAEDGNKFAKLIVETDTFGSRVRIKGAESEKYICMNKRGKLIGKPSGKSKDCVFTEIVLENNYTAFQNARHEGWFMAFTRQGRPRQASRSRQNQREAHFIKRLYQGQLPFPNHAEKQKQFEFVGSAPTRRTKRTRRPQPLT
Sox2 and T (Brachyury) expression [2]: nearly uniform expression of Sox2 and T (Brachyury) | Hox1-5 paralog activation [2]: activated Hox1-5 paralogs

B2: FGF18: fibroblast growth factor isoform used instead of FGF8b (protein, UniProt O76093 28-207, looked up)
Fibroblast growth factor 18: EENVDFRIHVENQTRARDDVSRKQLRLYQLYSRTSGKHIQVLGRRISARGEDGDKYAQLLVETDTFGSQVRIKGKETEFYLCMNRKGKLVGKPDGTSKECVFIEKVLENNYTALMSAKYSGWYVGFTKKGRPRKGPKTRENQQDVHFMKRYPKGQPELQKPFKYTTVTKRSRRIRPTHPA
Sox2 and T (Brachyury) expression [2]: nearly uniform expression of Sox2 and T (Brachyury) | Hox1-5 paralog activation [2]: activated Hox1-5 paralogs
